Experimental data as given in patent publication US9107900B2, “Use of dronedarone for the preparation of a medicament for use in the prevention of cardiovascular hospitalization or of morality” (SANOFI, priority 2008, dated 2015).
Where a name gives a salt, the structure may show the parent alone.

Test system: patients having a history of atrial fibrillation or atrial flutter
Experiment: prospective, multinational, multicentre, double-blind clinical study versus placebo: cardiovascular hospitalizations and mortality
Format: in vivo, human
Protocol: The patients had to have a history of atrial fibrillation or flutter and/or could be in normal sinus rhythm or in atrial fibrillation or flutter at inclusion.
The patient recruitment was carried out by taking into account the following inclusion criteria:
• 1) One of the following risk factors had to be present: • age equal to or greater than 70 years, • hypertension (taking antihypertensives of at least two different classes), • diabetes, • history of cerebral stroke (transient ischemic event or completed cerebral stroke) or of systemic embolism, • left atrial diameter greater than or equal to 50 mm measured by echocardiography, • left ventricular ejection fraction less than 40%, measured by two-dimensional echography; or • age equal to or above 70, or even above 75, possibly combined with at least one of the risk factors below: • hypertension (taking antihypertensives of at least two different classes), • diabetes, • history of cerebral stroke (transient ischemic event or completed cerebral stroke) or of systemic embolism, • left atrial diameter greater than or equal to 50 mm measured by echocardiography, • left ventricular ejection fraction less than 40%, measured by two-dimensional echography; • 2) availability of an electrocardiogram carried out during the past 6 months in order to document the presence or the history of atrial fibrillation or flutter; • 3) availability of an electrocardiogram carried out during the past 6 months in order to document the presence or absence of normal sinus rhythm. […] Criteria Related to a Cardiac Condition: • Patients in permanent atrial fibrillation • Patients in unstable hemodynamic condition such as acute pulmonary edema within 12 hours prior to start of study medication; cardiogenic shock; treatment with IV pressor agents; patients on respirator; congestive heart failure of stage NYHA IV within the last 4 weeks; uncorrected, hemodynamically significant primary obstructive valvular disease; hemodynamically significant obstructive cardomyopathy; a cardiac operation or revascularization procedure within 4 weeks preceding randomization • Planned major non-cardiac or cardiac surgery or procedures including surgery for valvular heart disease, coronary artery bypass graft (CABG), percutaneous coronary intervention (PCI), or on urgent cardiac transplantation list • Acute myocarditis or constrictive pericarditis • Bradycardia<50 bpm and/or PR-interval>0.28 sec on the last 12-lead ECG. • Significant sinus node disease (documented pause of 3 seconds or more) or 2nd or 3rd degree atrioventricular block (AV-block) unless treated with a pacemaker. Criteria Related to Concomitant Medications:
Need of a concomitant medication that is prohibited in this trial, including the requirement for Vaughan Williams Class I and III anti-arrhythmic drugs, that would preclude the use of study drug during the planned study period, i.e. patients have to stop others antiarrhythmics such as Vaughan Williams Class I and III anti-arrhythmic drugs, for example amiodarone, flecamide, propafenone, quinidine, disopyramide, dofetilide, solatol.
• Plasma potassium<3.5 mmol/l (as anti-arrhythmic drugs can be arrhythmogenic in patients with hypokalemia, this must be corrected prior to randomization. • A calculated GFR at baseline<10 ml/min using the Cockroft Gault formula (GFR [ml/min]=(140−AGE [years]*WEIGHT [kilograms]*CONSTANT/CREATININE [μmol/L], where CONSTANT is […]).
Furthermore, the concomitant use of grapefruit juice and all potent inhibitors of CYP3A4 such as ketoconazole were prohibited.
Treatment was initiated using tablets containing either the placebo or an amount of dronedarone hydrochloride corresponding to 400 mg of dronedarone at a rate of twice a day with the morning and evening meal and more specifically at a rate of one tablet in the morning during or shortly after breakfast and one tablet in the evening during or shortly after dinner. […]

[1] = NYHA class III and LVEF below 0.35, stable, 400 mg BID, N = 24
[2] = NYHA class III congestive heart failure, stable hemodynamic condition, vs placebo
[3] = NYHA class III congestive heart failure, stable, vs placebo
[4] = all patients, treated group 2301 of 4628
[5] = all patients, treated group 2301 of 4628, 400 mg twice a day
[6] = congestive heart failure, LVEF below 0.35, stable, vs placebo
[7] = patients with a structural heart disease
[8] = patients with a structural heart disease, vs placebo
[9] = patients with coronary heart disease (668 treated patients)
[10] = patients with coronary heart disease, vs placebo
[11] = patients with permanent atrial fibrillation/flutter, vs placebo

CCCCc1oc2ccc(NS(C)(=O)=O)cc2c1C(=O)c1ccc(OCCCN(CCCC)CCCC)cc1 [dronedarone hydrochloride, 2-n-Butyl-3-[4-(3-di-n-butylaminopropoxy)benzoyl]-5-methylsulphonamidobenzofuran]
HR (95% CI): cardiovascular hospitalization and death (Left atrium diameter >=50 mm (N 955), vs placebo): 0.77 (0.63, 0.94) | decrease of cardiovascular hospitalization and death (Left atrium diameter >=50 mm, vs placebo): 23% | Endpoint's composition: Cardiovascular death [1]: 2 | Endpoint's composition: Cardiovascular hospitalization [1]: 10 | Endpoint's composition: Death from any cause [1]: 3 | Endpoint's composition: Non cardiovascular death [1]: 1 | number of events: death (NYHA class III congestive heart failure, stable (91 treated patients)): 12 events | number of events: cardiovascular hospitalization and death (NYHA class III congestive heart failure, stable hemodynamic condition (91 treated patients)): 40 events | decrease of cardiovascular hospitalization or death [2]: 44% | relative risk: cardiovascular hospitalization or death [2]: 0.56 | decrease of death [3]: 34% | relative risk: death [3]: 0.66 | HR (95% CI): cardiovascular hospitalization and death (Prior cerebrovascular accident or systemic embolism (N 616), vs placebo): 0.80 (0.62, 1.02) | decrease of cardiovascular hospitalization and death (Prior cerebrovascular accident or systemic embolism, vs placebo): 20% | number of arrhythmic deaths (deaths from cardiac arrhythmia) [4]: 26 arrhythmic deaths | number of cardiovascular deaths [4]: 65 cardiovascular deaths | number of deaths: mortality from any cause [4]: 116 deaths | number of events: cardiovascular hospitalizations [4]: 675 events | number of events: cardiovascular hospitalizations and sudden death [4]: 684 events | number of events: cardiovascular hospitalizations for atrial fibrillation or supraventricular arrhythmia [4]: 296 events | number of events: cardiovascular hospitalizations for transient ischemic event or stroke [4]: 43 events | number of events: hospitalizations associated with class IV congestive heart failure [4]: 42 events | number of events: hospitalizations associated with congestive heart failure [4]: 112 events | number of sudden deaths [4]: 14 sudden deaths | number of events: cardiovascular hospitalizations and cardiovascular mortality [5]: 701 events | number of events: cardiovascular hospitalizations and mortality (principal judgement criterion) [5]: 734 events | number of events: death (congestive heart failure, LVEF below 0.35, stable (92 treated patients)): 10 events | decrease of cardiovascular hospitalization or death [6]: 32% | decrease of death [6]: 45% | relative risk: cardiovascular hospitalization or death [6]: 0.68 | relative risk: death [6]: 0.55 | number of events: cardiovascular hospitalization and death (congestive heart failure, left ventricular ejection fraction below 0.35, stable hemodynamic condition (92 treated patients)): 39 events | reduction in the risk of sudden death (patients not taking diuretics, vs placebo): 34% | number of events: cardiovascular hospitalizations and mortality (patients who developed permanent atrial fibrillation/flutter): 29 events | number of events: cardiovascular death [7]: 48 events | number of events: cardiovascular hospitalization [7]: 452 events | number of events: cardiovascular hospitalization or death [7]: 486 events | number of events: death [7]: 77 events | decrease of cardiovascular deaths [8]: 33% | decrease of cardiovascular hospitalization [8]: 24% | decrease of cardiovascular hospitalization or death [8]: 24% | decrease of death [8]: 24% | relative risk: cardiovascular death [8]: 0.67 | relative risk: cardiovascular hospitalization [8]: 0.76 | relative risk: cardiovascular hospitalization or death [8]: 0.76 | relative risk: death [8]: 0.76 | number of events: cardiovascular death [9]: 26 events | number of events: cardiovascular hospitalization [9]: 233 events | number of events: cardiovascular hospitalization or death [9]: 252 events | number of events: death [9]: 39 events | decrease of cardiovascular death [10]: 40% | decrease of cardiovascular hospitalization [10]: 26% | decrease of cardiovascular hospitalization or death [10]: 27% | decrease of death [10]: 36% | relative risk: cardiovascular death [10]: 0.602 | relative risk: cardiovascular hospitalization [10]: 0.740 | relative risk: cardiovascular hospitalization or death [10]: 0.733 | relative risk: death [10]: 0.643 | reduction in cardiovascular hospitalizations and mortality [11]: 33% | relative risk: cardiovascular hospitalizations and mortality [11]: 0.67 | patients who developed permanent atrial fibrillation/flutter (treated group 2301 of 4628, p<0.001 vs placebo (294)): 178 patients | decrease of cardiovascular hospitalization associated with class IV congestive heart failure (vs placebo, all patients): 22% | decrease of cardiovascular hospitalization associated with congestive heart failure (vs placebo, all patients): 14.5% | reduction in cardiovascular hospitalizations (vs placebo, all patients): 25.5% | reduction in cardiovascular hospitalizations and cardiovascular deaths (vs placebo, all patients): 25.5% | reduction in cardiovascular hospitalizations and sudden deaths (vs placebo, all patients): 25.5% | reduction in cardiovascular hospitalizations for atrial fibrillation (vs placebo, all patients): 38.4% | reduction in cardiovascular hospitalizations for transient ischemic event or stroke (vs placebo, all patients): 34% | reduction in cardiovascular mortality (vs placebo, all patients): 30.2% | reduction in sudden death (vs placebo, all patients): 59.5% | reduction in the risk of a first cardiovascular hospitalization not due to a supraventricular arrhythmia (vs placebo, all patients): 14.5% | reduction of arrhythmic death (vs placebo, all patients): 45% | reduction of death (any cause) (vs placebo, all patients): 15.6% | relative risk: arrhythmic death (vs placebo, all patients): 0.55 | relative risk: cardiovascular hospitalizations (vs placebo, all patients): 0.745 | relative risk: cardiovascular hospitalizations and cardiovascular deaths (vs placebo, all patients): 0.745 | relative risk: cardiovascular hospitalizations and sudden deaths (vs placebo, all patients): 0.743 | relative risk: cardiovascular hospitalizations for atrial fibrillation or supraventricular arrhythmia (vs placebo, all patients): 0.616 | relative risk: cardiovascular hospitalizations for transient ischemic event or stroke (vs placebo, all patients): 0.66 | relative risk: cardiovascular mortality (vs placebo, all patients): 0.698 | relative risk: hospitalizations associated with class IV congestive heart failure (vs placebo, all patients): 0.78 | relative risk: hospitalizations associated with congestive heart failure (vs placebo, all patients): 0.855 | relative risk: mortality from any cause (vs placebo, all patients): 0.844 | relative risk: sudden death (vs placebo, all patients): 0.405 | relative risk: cardiovascular hospitalizations and deaths (vs placebo, all patients, 400 mg twice a day): 0.758 | reduction in cardiovascular hospitalizations and deaths (vs placebo, all patients, x=1-relative risk): 24.2%
